# Measured values taken from BindingDB's records for patent US20230312550 (Astrazeneca, 2023).
# Molecular target: T1, Prolyl endopeptidase FAP (Homo sapiens, UniProt Q12884)
# T1 sequence (Q12884 whole entry): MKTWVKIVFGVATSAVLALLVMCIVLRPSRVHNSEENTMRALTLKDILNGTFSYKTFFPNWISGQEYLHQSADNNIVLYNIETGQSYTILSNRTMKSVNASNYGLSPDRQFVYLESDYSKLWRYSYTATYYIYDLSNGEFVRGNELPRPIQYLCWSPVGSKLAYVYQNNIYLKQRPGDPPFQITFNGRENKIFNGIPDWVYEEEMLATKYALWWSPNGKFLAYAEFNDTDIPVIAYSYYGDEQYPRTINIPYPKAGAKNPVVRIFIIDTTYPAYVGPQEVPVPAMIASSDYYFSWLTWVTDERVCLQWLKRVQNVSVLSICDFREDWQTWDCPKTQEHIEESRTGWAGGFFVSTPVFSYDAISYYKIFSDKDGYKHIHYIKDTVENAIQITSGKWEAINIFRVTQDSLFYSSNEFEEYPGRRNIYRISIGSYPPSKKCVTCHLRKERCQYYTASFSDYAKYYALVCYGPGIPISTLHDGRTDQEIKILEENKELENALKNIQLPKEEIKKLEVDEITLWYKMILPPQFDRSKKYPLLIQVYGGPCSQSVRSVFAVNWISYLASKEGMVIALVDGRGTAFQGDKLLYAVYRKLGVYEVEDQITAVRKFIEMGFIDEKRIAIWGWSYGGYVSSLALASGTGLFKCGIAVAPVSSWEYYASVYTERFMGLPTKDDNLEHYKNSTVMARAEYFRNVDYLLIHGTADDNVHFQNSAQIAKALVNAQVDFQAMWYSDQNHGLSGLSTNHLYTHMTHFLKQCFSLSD
# Assay: hFAP Binding Assay
# Details: not given
SMILES,koff,koff (s-1)
"N#C[C@@H]1CSCN1C(=O)CNC(=O)c1ccnc2ccc(N3CCCC[C@@H](F)C3)cc12 [US20230312550, Example 59]",0.00019 s⁻¹,
"C[C@H]1COCCCN1c1ccc2nccc(C(=O)NCC(=O)N3CSC[C@H]3C#N)c2c1 [US20230312550, Example 63]",5.9e-05 s⁻¹,
"C[C@@H]1CN(c2ccc3nccc(C(=O)NCC(=O)N4CSC[C@H]4C#N)c3c2)CCCO1 [US20230312550, Example 64]",0.00015 s⁻¹,
"C[C@H]1CCCN1c1ccc2nccc(C(=O)NCC(=O)N3CSC[C@H]3C#N)c2c1 [US20230312550, Example 65]",0.00047 s⁻¹,
"N#C[C@@H]1CSCN1C(=O)CNC(=O)c1ccnc2ccc(N3C[C@H]4C[C@@H]3CO4)cc12 [US20230312550, Example 76]",5.2e-05 s⁻¹,
"N#C[C@@H]1CSCN1C(=O)CNC(=O)c1ccnc2ccc(N3CC4CC(C3)O4)cc12 [US20230312550, Example 77]",6.6e-05 s⁻¹,
"N#C[C@@H]1CSCN1C(=O)CNC(=O)c1ccnc2ccc(N3CCOC[C@@H]3C(F)(F)F)cc12 [US20230312550, Example 85]",0.00011 s⁻¹,0.00011 s⁻¹
"N#C[C@@H]1CSCN1C(=O)CNC(=O)c1ccnc2ccc(N3C4CCCC3COC4)cc12 [US20230312550, Example 86]",5.8e-05 s⁻¹,
"CS(=O)(=O)C[C@@H]1CN(c2ccc3nccc(C(=O)NCC(=O)N4CSC[C@H]4C#N)c3c2)CCO1 [US20230312550, Example 94]",9.9e-05 s⁻¹,
"N#C[C@@H]1CSCN1C(=O)CNC(=O)c1ccnc2ccc(N3C4CCC3COC4)cc12 [US20230312550, Example 98]",1.5e-05 s⁻¹,

# Continued, values first:
koff,koff (s-1),SMILES
0.00017 s⁻¹,,"N#C[C@@H]1CSCN1C(=O)CNC(=O)c1ccnc2ccc(N3CCCC[C@H](F)C3)cc12 [US20230312550, Example 60]"
8.5e-05 s⁻¹,,"C[C@H]1CCN(c2ccc3nccc(C(=O)NCC(=O)N4CSC[C@H]4C#N)c3c2)CCO1 [US20230312550, Example 62]"
0.00022 s⁻¹,,"COC1CN(c2ccc3nccc(C(=O)NCC(=O)N4CSC[C@H]4C#N)c3c2)C1 [US20230312550, Example 66]"
0.00016 s⁻¹,,"N#C[C@@H]1CSCN1C(=O)CNC(=O)c1ccnc2ccc(N3CCO[C@@H](C(F)(F)F)C3)cc12 [US20230312550, Example 73]"
0.00016 s⁻¹,,"N#C[C@@H]1CSCN1C(=O)CNC(=O)c1ccnc2ccc(N3CCO[C@H](C(F)(F)F)C3)cc12 [US20230312550, Example 74]"
2.4e-05 s⁻¹,,"N#C[C@@H]1CSCN1C(=O)CNC(=O)c1ccnc2ccc(N3C[C@@H]4C[C@H]3CO4)cc12 [US20230312550, Example 75]"
0.00012 s⁻¹,,"N#C[C@@H]1CSCN1C(=O)CNC(=O)c1ccnc2ccc(N3CC4CCC(C3)O4)cc12 [US20230312550, Example 79]"
0.00034 s⁻¹,,"CC1(C)CN(c2ccc3nccc(C(=O)NCC(=O)N4CSC[C@H]4C#N)c3c2)CCO1 [US20230312550, Example 88]"
0.0001 s⁻¹,,"C[C@@H]1COC[C@H](C)N1c1ccc2nccc(C(=O)NCC(=O)N3CSC[C@H]3C#N)c2c1 [US20230312550, Example 90]"
0.00011 s⁻¹,,"CS(=O)(=O)C[C@H]1CN(c2ccc3nccc(C(=O)NCC(=O)N4CSC[C@H]4C#N)c3c2)CCO1 [US20230312550, Example 92]"
8e-05 s⁻¹,,"COC[C@@H]1CN(c2ccc3nccc(C(=O)NCC(=O)N4CSC[C@H]4C#N)c3c2)CCO1 [US20230312550, Example 93]"
5.6e-05 s⁻¹,,"COCC[C@@H]1COCCN1c1ccc2nccc(C(=O)NCC(=O)N3CSC[C@H]3C#N)c2c1 [US20230312550, Example 95]"
0.00022 s⁻¹,,"COC[C@H]1[C@H](C)OCCN1c1ccc2nccc(C(=O)NCC(=O)N3CSC[C@H]3C#N)c2c1 [US20230312550, Example 96]"
7.6e-05 s⁻¹,,"COC[C@@H]1[C@@H](C)OCCN1c1ccc2nccc(C(=O)NCC(=O)N3CSC[C@H]3C#N)c2c1 [US20230312550, Example 97]"
0.0002 s⁻¹,,"N#C[C@@H]1CSCN1C(=O)CNC(=O)c1ccnc2ccc(N3CCOC4(CCOCC4)C3)cc12 [US20230312550, Example 99]"

# Same assay, conditions: read-out: kon (M-1-s-1)
row,SMILES,kon
1,"N#C[C@@H]1CSCN1C(=O)CNC(=O)c1ccnc2ccc(N3CCCC[C@@H](F)C3)cc12 [US20230312550, Example 59]",2.6e+06 M⁻¹ s⁻¹
2,"C[C@H]1COCCCN1c1ccc2nccc(C(=O)NCC(=O)N3CSC[C@H]3C#N)c2c1 [US20230312550, Example 63]",4.1e+06 M⁻¹ s⁻¹
3,"C[C@@H]1CN(c2ccc3nccc(C(=O)NCC(=O)N4CSC[C@H]4C#N)c3c2)CCCO1 [US20230312550, Example 64]",1.3e+06 M⁻¹ s⁻¹
4,"C[C@H]1CCCN1c1ccc2nccc(C(=O)NCC(=O)N3CSC[C@H]3C#N)c2c1 [US20230312550, Example 65]",6.7e+06 M⁻¹ s⁻¹
5,"N#C[C@@H]1CSCN1C(=O)CNC(=O)c1ccnc2ccc(N3C[C@H]4C[C@@H]3CO4)cc12 [US20230312550, Example 76]",1e+06 M⁻¹ s⁻¹
6,"N#C[C@@H]1CSCN1C(=O)CNC(=O)c1ccnc2ccc(N3CC4CC(C3)O4)cc12 [US20230312550, Example 77]",4.8e+06 M⁻¹ s⁻¹
7,"N#C[C@@H]1CSCN1C(=O)CNC(=O)c1ccnc2ccc(N3C4CCCC3COC4)cc12 [US20230312550, Example 86]",730000 M⁻¹ s⁻¹
8,"CS(=O)(=O)C[C@@H]1CN(c2ccc3nccc(C(=O)NCC(=O)N4CSC[C@H]4C#N)c3c2)CCO1 [US20230312550, Example 94]",1.9e+06 M⁻¹ s⁻¹
9,"N#C[C@@H]1CSCN1C(=O)CNC(=O)c1ccnc2ccc(N3C4CCC3COC4)cc12 [US20230312550, Example 98]",1.6e+06 M⁻¹ s⁻¹

# The next lines start with the values.
row,kon,SMILES
1,1.7e+06 M⁻¹ s⁻¹,"N#C[C@@H]1CSCN1C(=O)CNC(=O)c1ccnc2ccc(N3CCCC[C@H](F)C3)cc12 [US20230312550, Example 60]"
2,710000 M⁻¹ s⁻¹,"C[C@H]1CCN(c2ccc3nccc(C(=O)NCC(=O)N4CSC[C@H]4C#N)c3c2)CCO1 [US20230312550, Example 62]"
3,2.6e+07 M⁻¹ s⁻¹,"COC1CN(c2ccc3nccc(C(=O)NCC(=O)N4CSC[C@H]4C#N)c3c2)C1 [US20230312550, Example 66]"
4,2.4e+06 M⁻¹ s⁻¹,"N#C[C@@H]1CSCN1C(=O)CNC(=O)c1ccnc2ccc(N3CCO[C@@H](C(F)(F)F)C3)cc12 [US20230312550, Example 73]"
5,1.1e+06 M⁻¹ s⁻¹,"N#C[C@@H]1CSCN1C(=O)CNC(=O)c1ccnc2ccc(N3CCO[C@H](C(F)(F)F)C3)cc12 [US20230312550, Example 74]"
6,2.3e+06 M⁻¹ s⁻¹,"N#C[C@@H]1CSCN1C(=O)CNC(=O)c1ccnc2ccc(N3C[C@@H]4C[C@H]3CO4)cc12 [US20230312550, Example 75]"
7,1.6e+07 M⁻¹ s⁻¹,"N#C[C@@H]1CSCN1C(=O)CNC(=O)c1ccnc2ccc(N3CC4CCC(C3)O4)cc12 [US20230312550, Example 79]"
8,4.2e+06 M⁻¹ s⁻¹,"CC1(C)CN(c2ccc3nccc(C(=O)NCC(=O)N4CSC[C@H]4C#N)c3c2)CCO1 [US20230312550, Example 88]"
9,480000 M⁻¹ s⁻¹,"C[C@@H]1COC[C@H](C)N1c1ccc2nccc(C(=O)NCC(=O)N3CSC[C@H]3C#N)c2c1 [US20230312550, Example 90]"
10,2.2e+06 M⁻¹ s⁻¹,"CS(=O)(=O)C[C@H]1CN(c2ccc3nccc(C(=O)NCC(=O)N4CSC[C@H]4C#N)c3c2)CCO1 [US20230312550, Example 92]"
11,1.8e+06 M⁻¹ s⁻¹,"COC[C@@H]1CN(c2ccc3nccc(C(=O)NCC(=O)N4CSC[C@H]4C#N)c3c2)CCO1 [US20230312550, Example 93]"
12,2.9e+06 M⁻¹ s⁻¹,"COCC[C@@H]1COCCN1c1ccc2nccc(C(=O)NCC(=O)N3CSC[C@H]3C#N)c2c1 [US20230312550, Example 95]"
13,4e+06 M⁻¹ s⁻¹,"COC[C@H]1[C@H](C)OCCN1c1ccc2nccc(C(=O)NCC(=O)N3CSC[C@H]3C#N)c2c1 [US20230312550, Example 96]"
14,690000 M⁻¹ s⁻¹,"COC[C@@H]1[C@@H](C)OCCN1c1ccc2nccc(C(=O)NCC(=O)N3CSC[C@H]3C#N)c2c1 [US20230312550, Example 97]"
15,2.1e+06 M⁻¹ s⁻¹,"N#C[C@@H]1CSCN1C(=O)CNC(=O)c1ccnc2ccc(N3CCOC4(CCOCC4)C3)cc12 [US20230312550, Example 99]"
